Assay results from ChEMBL document CHEMBL1132690, “Design, synthesis, and biological evaluation of potent thiazine- and thiazepine-based matrix metalloproteinase inhibitors” (J Med Chem, 1999).

Legend:
Matrilysin [1] = molecular target: T1, Matrilysin (Homo sapiens, UniProt P09237)
T1 sequence (P09237 whole entry): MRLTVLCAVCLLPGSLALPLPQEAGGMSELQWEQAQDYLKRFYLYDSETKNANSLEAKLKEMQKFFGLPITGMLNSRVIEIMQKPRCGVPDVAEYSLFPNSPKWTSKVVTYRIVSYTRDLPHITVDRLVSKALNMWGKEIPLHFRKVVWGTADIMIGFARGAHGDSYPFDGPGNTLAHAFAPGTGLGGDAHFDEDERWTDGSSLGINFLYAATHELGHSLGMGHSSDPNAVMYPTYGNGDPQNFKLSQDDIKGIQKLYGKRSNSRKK
Description: In vitro inhibitory activity against matrilysin (matrix metalloprotease-7).

Interstitial collagenase = molecular target: T2, Interstitial collagenase (Homo sapiens, UniProt P03956)
T2 sequence (P03956 whole entry): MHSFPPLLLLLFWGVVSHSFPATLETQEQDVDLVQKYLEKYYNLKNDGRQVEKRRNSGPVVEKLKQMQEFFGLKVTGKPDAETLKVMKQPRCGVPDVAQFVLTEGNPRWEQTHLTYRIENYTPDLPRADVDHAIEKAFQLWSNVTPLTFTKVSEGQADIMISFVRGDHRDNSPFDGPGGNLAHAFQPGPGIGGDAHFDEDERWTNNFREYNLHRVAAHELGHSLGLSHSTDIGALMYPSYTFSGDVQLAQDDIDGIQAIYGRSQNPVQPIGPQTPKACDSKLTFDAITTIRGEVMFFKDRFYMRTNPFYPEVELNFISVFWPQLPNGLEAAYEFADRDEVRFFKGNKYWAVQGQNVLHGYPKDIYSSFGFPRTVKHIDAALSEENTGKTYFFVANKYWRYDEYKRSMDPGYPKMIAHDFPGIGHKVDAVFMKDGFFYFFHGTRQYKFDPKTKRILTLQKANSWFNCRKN
Description: In vitro inhibitory activity against truncated collagenase-1 (matrix metalloprotease-1).

Collagenase 3 = Collagenase 3 (Homo sapiens, UniProt P45452)
Description: In vitro inhibitory activity against collagenase-3 (matrix metalloprotease-13).

[2] = molecular target: 72 kDa type IV collagenase (Homo sapiens, UniProt P08253)
Description: In vitro inhibitory activity against gelatinase-A (matrix metalloprotease-2).

[3] = molecular target: Matrix metalloproteinase-9 (Homo sapiens, UniProt P14780)
Description: Inhibition of gelatinase-B (Matrix metalloprotease-9)

Neutrophil collagenase = Neutrophil collagenase (Homo sapiens, UniProt P22894)
Description: Inhibition of neutrophil collagenase (Matrix metalloprotease-8)

Matrilysin [4] = molecular target: T1, Matrilysin; remark: listed apart in the source
Description: Inhibition of matrilysin (Matrix metalloprotease-7)

Neutrophil collagenase, sequence (P22894 whole entry): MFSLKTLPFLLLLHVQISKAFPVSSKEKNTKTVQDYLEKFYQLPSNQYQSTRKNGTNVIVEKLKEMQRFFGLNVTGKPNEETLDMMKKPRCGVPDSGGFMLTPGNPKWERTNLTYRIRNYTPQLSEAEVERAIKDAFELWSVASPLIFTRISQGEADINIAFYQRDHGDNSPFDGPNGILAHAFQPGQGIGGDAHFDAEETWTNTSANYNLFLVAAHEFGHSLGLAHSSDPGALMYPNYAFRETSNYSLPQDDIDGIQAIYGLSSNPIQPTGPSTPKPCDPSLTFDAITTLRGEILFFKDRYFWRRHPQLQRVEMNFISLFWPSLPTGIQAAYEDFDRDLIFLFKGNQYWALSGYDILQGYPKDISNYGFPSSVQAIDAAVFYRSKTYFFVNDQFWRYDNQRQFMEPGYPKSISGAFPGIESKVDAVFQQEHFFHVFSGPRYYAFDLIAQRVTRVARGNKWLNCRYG
72 kDa type IV collagenase, sequence (P08253 whole entry): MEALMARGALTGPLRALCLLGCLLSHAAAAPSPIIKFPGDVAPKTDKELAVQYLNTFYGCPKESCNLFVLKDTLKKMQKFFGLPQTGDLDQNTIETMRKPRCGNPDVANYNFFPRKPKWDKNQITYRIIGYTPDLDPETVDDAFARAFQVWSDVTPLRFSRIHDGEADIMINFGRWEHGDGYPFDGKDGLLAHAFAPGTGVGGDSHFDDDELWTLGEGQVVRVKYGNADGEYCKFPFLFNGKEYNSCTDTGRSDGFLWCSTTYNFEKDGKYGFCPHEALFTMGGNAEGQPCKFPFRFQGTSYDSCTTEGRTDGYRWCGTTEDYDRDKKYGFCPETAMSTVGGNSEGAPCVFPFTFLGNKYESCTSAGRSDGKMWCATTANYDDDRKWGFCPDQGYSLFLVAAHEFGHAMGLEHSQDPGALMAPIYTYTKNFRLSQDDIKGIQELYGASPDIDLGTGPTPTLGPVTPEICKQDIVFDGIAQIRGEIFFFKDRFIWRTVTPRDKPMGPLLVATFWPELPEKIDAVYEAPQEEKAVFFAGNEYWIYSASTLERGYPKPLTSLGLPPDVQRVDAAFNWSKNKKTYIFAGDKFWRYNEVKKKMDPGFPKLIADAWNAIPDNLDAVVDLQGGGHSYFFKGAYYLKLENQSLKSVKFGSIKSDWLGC
Matrix metalloproteinase-9, sequence (P14780 whole entry): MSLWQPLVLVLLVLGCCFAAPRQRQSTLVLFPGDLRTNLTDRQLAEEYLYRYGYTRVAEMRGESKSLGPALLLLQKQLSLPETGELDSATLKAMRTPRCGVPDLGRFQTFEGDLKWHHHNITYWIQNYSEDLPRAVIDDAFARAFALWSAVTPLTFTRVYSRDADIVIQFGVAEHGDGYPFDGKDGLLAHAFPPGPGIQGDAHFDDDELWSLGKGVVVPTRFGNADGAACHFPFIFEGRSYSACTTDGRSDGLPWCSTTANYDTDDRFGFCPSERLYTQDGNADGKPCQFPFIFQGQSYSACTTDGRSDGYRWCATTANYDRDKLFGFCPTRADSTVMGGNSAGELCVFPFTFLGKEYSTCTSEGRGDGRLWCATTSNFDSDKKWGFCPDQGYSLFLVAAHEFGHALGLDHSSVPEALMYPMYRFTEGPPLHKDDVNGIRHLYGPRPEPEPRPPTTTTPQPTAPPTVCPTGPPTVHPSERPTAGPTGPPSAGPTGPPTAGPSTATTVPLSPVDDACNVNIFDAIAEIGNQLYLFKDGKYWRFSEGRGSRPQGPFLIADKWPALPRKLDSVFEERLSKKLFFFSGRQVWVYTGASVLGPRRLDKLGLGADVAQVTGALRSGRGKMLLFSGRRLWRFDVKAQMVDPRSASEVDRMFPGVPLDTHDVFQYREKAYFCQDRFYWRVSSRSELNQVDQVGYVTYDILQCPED

Row | Structure (SMILES) | IC50 (Matrilysin [1]) [nM] | IC50 (Interstitial collagenase) [nM] | IC50 (Collagenase 3) [nM] | IC50 [2] [nM] | IC50 [3] [nM] | IC50 (Neutrophil collagenase) [nM] | Ki (Matrilysin [4]) [nM]
1 | COc1ccc(S(=O)(=O)N2CCNCC2C(=O)NO)cc1 (stereo unspecified) | 2390 | 175 | 1.7 | – | – | – | –
2 | COc1ccc(S(=O)(=O)N2CCCC2C(=O)NO)cc1 (stereo unspecified) | – | 297 | – | – | – | – | –
3 | CCCCOc1ccc(S(=O)(=O)N2CCCSC(C)(C)[C@@H]2C(=O)NO)cc1 | – | 18 | 2.3 | 1 | – | – | –
4 | CC1(C)SCCCN(S(=O)(=O)c2ccc(Oc3ccncc3)cc2)[C@H]1C(=O)NO | 105 | 5.7 | < 0.4 | < 0.4 | – | – | –
5 | COc1ccc(S(=O)(=O)N2CCCSCC2C(=O)NO)cc1 (stereo unspecified) | 1100 | 64 | 1.9 | – | – | – | –
6 | COc1ccc(S(=O)(=O)N2CCCCC2C(=O)NO)cc1 (stereo unspecified) | 313 | – | 0.5 | – | – | – | –
7 | CCCc1ccc(S(=O)(=O)N2CCCSC(C)(C)[C@@H]2C(=O)NO)cc1 | 637 | 22 | 7.5 | 35 | – | – | –
8 | COc1ccc(S(=O)(=O)N2CCCCCC2C(=O)NO)cc1 (stereo unspecified) | 895 | 49 | 1.8 | – | – | – | –
9 | COc1ccc(S(=O)(=O)N2CCCSC[C@@]2(C)C(=O)NO)cc1 | 17700 | 217 | 4 | 4.2 | – | – | –
10 | COc1ccc(S(=O)(=O)N2[C@@H](C(=O)NO)C(C)(C)SCC[C@H]2c2ccccc2)cc1 | 54 | 236 | – | – | – | – | –
11 | COc1ccc(S(=O)(=O)N2[C@@H](c3ccccc3)CCSC(C)(C)[C@@H]2C(=O)NO)cc1 | 110 | 271 | – | – | – | – | –
12 | COCOC1CSC(C)(C)[C@H](C(=O)NO)N(S(=O)(=O)c2ccc(OC)cc2)C1 (stereo partly specified) | 38 | – | 1.4 | 1.8 | – | – | –
13 | COc1ccc(S(=O)(=O)N2CCCS(=O)(=O)C(C)(C)[C@@H]2C(=O)NO)cc1 | 41 | – | 2.1 | 7.8 | 3.6 | 2.4 | –
14 | COc1ccc(S(=O)(=O)N2CCS(=O)(=O)C(C)(C)[C@@H]2C(=O)NO)cc1 | – | 13 | 4.3 | 14 | – | – | –
15 | CCCCCc1ccc(S(=O)(=O)N2CCCSC(C)(C)[C@@H]2C(=O)NO)cc1 | 330 | 61 | 2.1 | – | – | – | –
16 | COc1ccc(S(=O)(=O)N2CSCC2C(=O)NO)cc1 (stereo unspecified) | – | 638 | – | – | – | – | –
17 | COc1ccc(S(=O)(=O)N2CCS(=O)(=O)CC2C(=O)NO)cc1 (stereo unspecified) | 12800 | 688 | 18.4 | – | – | – | –
18 | CC1(C)SCCCN(S(=O)(=O)c2ccc(-c3ccc(F)cc3)cc2)[C@H]1C(=O)NO | < 100 | 2.9 | < 1 | 1.3 | – | – | –
19 | COCCOc1ccc(S(=O)(=O)N2CCCSC(C)(C)[C@@H]2C(=O)NO)cc1 | 509 | 42 | 5.6 | 11.4 | – | – | –
20 | COc1ccc(S(=O)(=O)N2CCSCC2C(=O)NO)cc1 (stereo unspecified) | 2070 | 62 | 1 | – | – | – | –
21 | COc1ccc(S(=O)(=O)N2CCOCC2C(=O)NO)cc1 (stereo unspecified) | – | 49.5 | 1 | – | – | – | –
22 | CCCCOc1ccc(S(=O)(=O)N2CCCS(=O)(=O)C(C)(C)[C@@H]2C(=O)NO)cc1 | 27 | 19 | 0.4 | 1.2 | – | – | –
23 | COc1ccc(S(=O)(=O)N2CCCCCSC(C)(C)[C@@H]2C(=O)NO)cc1 | 30 | 3 | 1 | 2.4 | 3.7 | 0.6 | –
24 | COc1ccc(S(=O)(=O)N2CCCSC(C)(C)C2C(=O)NO)cc1 (single isomer, unassigned) | > 10000 | 7780 | 2330 | 2900 | 1390 | 881 | –
25 | CC1(C)SCCN(S(=O)(=O)c2ccc(Oc3ccncc3)cc2)[C@H]1C(=O)NO [PRINOMASTAT] | 91 | – | – | – | – | < 0.4 | 54

Now from value to compound:

Row | IC50 (Matrilysin [1]) [nM] | IC50 (Interstitial collagenase) [nM] | IC50 (Collagenase 3) [nM] | IC50 [2] [nM] | IC50 [3] [nM] | IC50 (Neutrophil collagenase) [nM] | Ki (Matrilysin [4]) [nM] | Structure (SMILES)
26 | 354 | 0.5 | 9.2 | 24 | – | – | – | Cc1cc(Br)ccc1S(=O)(=O)N1CCCSC(C)(C)[C@@H]1C(=O)NO
27 | 18 | 2.4 | – | 1.4 | 0.5 | 1.9 | – | COc1ccc(S(=O)(=O)N2CCCCC(C)(C)[C@@H]2C(=O)NO)cc1
28 | 17 | 0.7 | 1.3 | 6.8 | – | – | – | CC1(C)SCCCN(S(=O)(=O)c2ccc(Br)cc2)[C@H]1C(=O)NO
29 | 16 | 2.3 | < 0.4 | – | – | – | – | CC1(C)SCCCN(S(=O)(=O)c2ccc(Oc3ccccc3)cc2)[C@H]1C(=O)NO
30 | 30 | 0.8 | 0.9 | 2.7 | 1.9 | 1.4 | – | COc1ccc(S(=O)(=O)N2CCCSC(C)(C)[C@@H]2C(=O)NO)cc1
31 | 23 | 0.4 | 1 | 1.4 | 0.9 | – | – | COc1ccc(S(=O)(=O)N2CCSC(C)(C)[C@@H]2C(=O)NO)cc1
32 | 79 | 1.2 | 2.7 | 20 | – | – | – | CC1(C)[C@H](C(=O)NO)N(S(=O)(=O)c2ccc(Br)cc2)CCCS1(=O)=O
33 | – | 1.9 | 1.3 | 5.2 | – | – | – | COc1ccc(S(=O)(=O)N2C[C@@H](O)CS(=O)(=O)C(C)(C)[C@@H]2C(=O)NO)cc1
34 | < 100 | < 1 | 0.2 | 3.5 | – | – | – | COc1ccc(S(=O)(=O)N2CCOCCSC(C)(C)[C@@H]2C(=O)NO)cc1
35 | 170 | 1 | < 0.2 | 1 | – | – | – | CC1(C)SCCCN(S(=O)(=O)c2ccc(-c3ccccn3)s2)[C@H]1C(=O)NO
36 | 183 | 1.9 | 3.3 | – | – | – | – | COc1ccc(S(=O)(=O)N2CCOCCS(=O)(=O)C(C)(C)[C@@H]2C(=O)NO)cc1
